In brackets after ≈: the same amount, converted by molar mass.
These compounds were tested on Enterococcus faecalis ATCC 29212 (assay: MIC against Enterococcus faecalis ATCC 29212). Settings: ATCC29212; Enterococcus faecalis ATCC 29212; read-out: MICs against Enterococcus faecalis, Activity.
Assay type: cell-based
How it was run: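 MIC measured by broth microdilution or agar dilution following CLSI guidelines (M7-A7 for aerobes, M11-A6 for anaerobes).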

Compound	MIC
CCNC(=O)Nc1nc2cc(-c3ccc(N4CCN(C)CC4)nc3)cc(-c3cccnc3)c2s1 [Example 23, 1-Ethyl-3-{5-[6-(4-methyl-piperazin-1-yl)-pyridin-3-yl]-7-pyridin-3-yl-benzothiazol-2-yl}-urea]	2 to 16 µg/mL (≈ 4.22 to 33.8 µM)
CCNC(=O)Nc1nc2cc(-c3cncc(N)n3)cc(-c3ccccn3)c2s1 [Example 53, 1-[5-(6-Amino-pyrazin-2-yl)-7-pyridin-2-yl-benzothiazol-2-yl]-3-ethyl-urea]	< 0.25 µg/mL
CCNC(=O)Nc1nc2cc(-c3cccnc3)cc(-c3ncccc3CO)c2s1 [Example 109, 1-Ethyl-3-[7-(3-hydroxymethyl-pyridin-2-yl)-5-pyridin-3-yl-benzothiazol-2-yl]-urea]	2 to 16 µg/mL (≈ 4.93 to 39.5 µM)
CCNC(=O)Nc1nc2cc(-c3ccc(NCCN(C)C)nc3)cc(-c3ccccn3)c2s1 [Example 61, 1-{5-[6-(2-Dimethylamino-ethylamino)-pyridin-3-yl]-7-pyridin-2-yl-benzothiazol-2-yl}-3-ethyl-urea]	0.25 to 1 µg/mL (≈ 0.542 to 2.17 µM)
CCNC(=O)Nc1nc2cc(-c3cccnc3)cc(-c3ncnc4[nH]ccc34)c2s1 [Example 116, 1-Ethyl-3-[5-pyridin-3-yl-7-(7H-pyrrolo[2,3-d]pyrimidin-4-yl)-benzothiazol-2-yl]-urea]	< 0.25 µg/mL
CCNC(=O)Nc1nc2cc(-c3cccnc3)cc(-c3ccc(N)cn3)c2s1 [Example 99, 1-[7-(5-Amino-pyridin-2-yl)-5-pyridin-3-yl-benzothiazol-2-yl]-3-ethyl-urea]	< 0.25 µg/mL
CCNC(=O)Nc1nc2cc(-c3ccc(CO)nc3)cc(-c3cccnc3)c2s1 [Example 19, 1-Ethyl-3-[5-(6-hydroxymethyl-pyridin-3-yl)-7-pyridin-3-yl-benzothiazol-2-yl]-urea]	0.25 to 1 µg/mL (≈ 0.617 to 2.47 µM)
CCNC(=O)Nc1nc2cc(-c3cccnc3)cc(-c3cccc(O)n3)c2s1 [Example 173, 1-Ethyl-3-[7-(6-hydroxy-pyridin-2-yl)-5-pyridin-3-yl-benzothiazol-2-yl]-urea]	2 to 16 µg/mL (≈ 5.11 to 40.9 µM)
CCNC(=O)Nc1nc2cc(-c3cccnc3)cc(-c3nccc(OC)n3)c2s1 [Example 124, 1-Ethyl-3-[7-(4-methoxy-pyrimidin-2-yl)-5-pyridin-3-yl-benzothiazol-2-yl]-urea]	< 0.25 µg/mL
CCNC(=O)Nc1nc2cc(-c3cnccc3C)cc(-c3ccccn3)c2s1 [Example 39, 1-Ethyl-3-[5-(4-methyl-pyridin-3-yl)-7-pyridin-2-yl-benzothiazol-2-yl]-urea]	0.25 to 1 µg/mL (≈ 0.642 to 2.57 µM)
CCNC(=O)Nc1nc2cc(Br)cc(-c3ccc(N)nc3)c2s1 [Example 1, 1-[7-(6-Amino-pyridin-3-yl)-5-bromo-benzothiazol-2-yl]-3-ethyl-urea]	2 to 16 µg/mL (≈ 5.1 to 40.8 µM)
CCNC(=O)Nc1nc2cc(-c3cc(C)n(C)c(=O)c3)cc(-c3cccnc3)c2s1 [Example 50, 1-[5-(1,6-Dimethyl-2-oxo-1,2-dihydro-pyridin-4-yl)-7-pyridin-3-yl-benzothiazol-2-yl]-3-ethyl-urea]	0.25 to 1 µg/mL (≈ 0.596 to 2.38 µM)
CCNC(=O)Nc1nc2cc(-c3ccc(NC(C)=O)nc3)cc(-c3cnccn3)c2s1 [Example 134, N-{5-[2-(3-Ethyl-ureido)-7-pyrazin-2-yl-benzothiazol-5-yl]-pyridin-2-yl}-acetamide]	< 0.25 µg/mL
CCNC(=O)Nc1nc2cc(-c3ccc(CO)cc3)cc(-c3cccnc3)c2s1 [Example 18, 1-Ethyl-3-[5-(4-hydroxymethyl-phenyl)-7-pyridin-3-yl-benzothiazol-2-yl]-urea]	2 to 16 µg/mL (≈ 4.94 to 39.6 µM)
CCNC(=O)Nc1nc2cc(-c3cccnc3)cc(-c3cccnn3)c2s1 [Example 160, 1-Ethyl-3-(7-pyridazin-3-yl-5-pyridin-3-yl-benzothiazol-2-yl)-urea]	2 to 16 µg/mL (≈ 5.31 to 42.5 µM)
CCNC(=O)Nc1nc2cc(-c3cccnc3)cc(-c3ncccc3N)c2s1 [Example 94, 1-[7-(3-Amino-pyridin-2-yl)-5-pyridin-3-yl-benzothiazol-2-yl]-3-ethyl-urea]	2 to 16 µg/mL (≈ 5.12 to 41 µM)
CCNC(=O)Nc1nc2cc(-c3ccncc3)cc(-c3cccnc3)c2s1 [Example 30, 1-Ethyl-3-(5-pyridin-4-yl-7-pyridin-3-yl-benzothiazol-2-yl)-urea]	0.25 to 1 µg/mL (≈ 0.666 to 2.66 µM)
CCNC(=O)Nc1nc2cc(-c3ccc(C#N)nc3)cc(-c3cccnc3)c2s1 [Example 27, 1-[5-(6-Cyano-pyridin-3-yl)-7-pyridin-3-yl-benzothiazol-2-yl]-3-ethyl-urea]	< 0.25 µg/mL
CCNC(=O)Nc1nc2cc(-c3ccc(OC)nc3)cc(-c3cccnc3)c2s1 [Example 29, 1-Ethyl-3-[5-(6-methoxy-pyridin-3-yl)-7-pyridin-3-yl-benzothiazol-2-yl]-urea]	0.25 to 1 µg/mL (≈ 0.617 to 2.47 µM)
CCNC(=O)Nc1nc2cc(-c3cccnc3)cc(-c3cc(Cl)ccn3)c2s1 [Example 127, 1-[7-(4-Chloro-pyridin-2-yl)-5-pyridin-3-yl-benzothiazol-2-yl]-3-ethyl-urea]	< 0.25 µg/mL
CCNC(=O)Nc1nc2cc(-c3ccn(CCN(C)C)c(=O)c3)cc(-c3ccccn3)c2s1 [Example 72, 1-{5-[1-(2-Dimethylamino-ethyl)-2-oxo-1,2-dihydro-pyridin-4-yl]-7-pyridin-2-yl-benzothiazol-2-yl}-3-ethyl-urea]	0.25 to 1 µg/mL (≈ 0.54 to 2.16 µM)

Compound	MIC
CCNC(=O)Nc1nc2cc(-c3cccnc3)cc(-c3ccc(CN(C)C)cn3)c2s1 [Example 132, 1-[7-(5-Dimethylaminomethyl-pyridin-2-yl)-5-pyridin-3-yl-benzothiazol-2-yl]-3-ethyl-urea]	2 to 16 µg/mL (≈ 4.62 to 37 µM)
CCNC(=O)Nc1nc2cc(-c3cccnc3)cc(-c3ccc(C(F)(F)F)cn3)c2s1 [Example 129, 1-Ethyl-3-[5-pyridin-3-yl-7-(5-trifluoromethyl-pyridin-2-yl)-benzothiazol-2-yl]-urea]	0.25 to 1 µg/mL (≈ 0.564 to 2.26 µM)
CCNC(=O)Nc1nc2cc(-c3cccnc3)cc(-c3sc(C)nc3C)c2s1 [Example 102, 1-[7-(2,4-Dimethyl-thiazol-5-yl)-5-pyridin-3-yl-benzothiazol-2-yl]-3-ethyl-urea]	0.25 to 1 µg/mL (≈ 0.61 to 2.44 µM)
CCNC(=O)Nc1nc2cc(-c3cccnc3)cc(-c3nccs3)c2s1 [Example 92, 1-Ethyl-3-(5-pyridin-3-yl-7-thiazol-2-yl-benzothiazol-2-yl)-urea]	< 0.25 µg/mL
CCNC(=O)Nc1nc2cc(-c3ccc(C)nc3)cc(-c3ccccn3)c2s1 [Example 41, 1-Ethyl-3-[5-(6-methyl-pyridin-3-yl)-7-pyridin-2-yl-benzothiazol-2-yl]-urea]	< 0.25 µg/mL
CCNC(=O)Nc1nc2cc(-c3ccnc(OC)c3)cc(-c3ccccn3)c2s1 [Example 40, 1-Ethyl-3-[5-(2-methoxy-pyridin-4-yl)-7-pyridin-2-yl-benzothiazol-2-yl]-urea]	0.25 to 1 µg/mL (≈ 0.617 to 2.47 µM)
CCNC(=O)Nc1nc2cc(-c3cccnc3)cc(-c3ncccc3Cl)c2s1 [Example 126, 1-[7-(3-Chloro-pyridin-2-yl)-5-pyridin-3-yl-benzothiazol-2-yl]-3-ethyl-urea]	< 0.25 µg/mL
CCNC(=O)Nc1nc2cc(-c3cccnc3)cc(-c3ncccc3C#N)c2s1 [Example 95, 1-[7-(3-Cyano-pyridin-2-yl)-5-pyridin-3-yl-benzothiazol-2-yl]-3-ethyl-urea]	< 0.25 µg/mL
CCNC(=O)Nc1nc2cc(-c3cncc(OC)c3)cc(-c3cccnc3)c2s1 [Example 31, 1-Ethyl-3-[5-(5-methoxy-pyridin-3-yl)-7-pyridin-3-yl-benzothiazol-2-yl]-urea]	0.25 to 1 µg/mL (≈ 0.617 to 2.47 µM)
CCNC(=O)Nc1nc2cc(-c3cccnc3)cc(-c3cncn3C)c2s1 [Example 164, 1-Ethyl-3-[7-(3-methyl-3H-imidazol-4-yl)-5-pyridin-3-yl-benzothiazol-2-yl]-urea]	2 to 16 µg/mL (≈ 5.28 to 42.3 µM)
CCNC(=O)Nc1nc2cc(-c3cccc(F)c3)cc(-c3cccnc3)c2s1 [Example 28, 1-Ethyl-3-[5-(3-fluoro-phenyl)-7-pyridin-3-yl-benzothiazol-2-yl]-urea]	0.25 to 1 µg/mL (≈ 0.637 to 2.55 µM)
CCNC(=O)Nc1nc2cc(-c3cncc(OC)c3)cc(-c3ccccn3)c2s1 [Example 179, 1-Ethyl-3-[5-(5-methoxy-pyridin-3-yl)-7-pyridin-2-yl-benzothiazol-2-yl]-urea]	< 0.25 µg/mL
CCNC(=O)Nc1nc2cc(-c3cccnc3C)cc(-c3ccccn3)c2s1 [Example 52, 1-Ethyl-3-[5-(2-methyl-pyridin-3-yl)-7-pyridin-2-yl-benzothiazol-2-yl]-urea]	0.25 to 1 µg/mL (≈ 0.642 to 2.57 µM)
CCNC(=O)Nc1nc2cc(-c3cccnc3)cc(-c3cc(C#N)ccn3)c2s1 [Example 119, 1-[7-(4-Cyano-pyridin-2-yl)-5-pyridin-3-yl-benzothiazol-2-yl]-3-ethyl-urea]	< 0.25 µg/mL
CCNC(=O)Nc1nc2cc(-c3ccnc(O)c3)cc(-c3ccccn3)c2s1 [Example 56, 1-Ethyl-3-[5-(2-hydroxy-pyridin-4-yl)-7-pyridin-2-yl-benzothiazol-2-yl]-urea]	0.25 to 1 µg/mL (≈ 0.639 to 2.55 µM)
CCNC(=O)Nc1nc2cc(-c3cccnc3)cc(-c3cncs3)c2s1 [Example 161, 1-Ethyl-3-(5-pyridin-3-yl-7-thiazol-5-yl-benzothiazol-2-yl)-urea]	< 0.25 µg/mL
CCNC(=O)Nc1nc2cc(-c3cnc4c(c3)NC(=O)CO4)cc(-c3ccccn3)c2s1 [Example 54, 1-Ethyl-3-[5-(2-oxo-2,3-dihydro-1H-pyrido[2,3-b][1,4]oxazin-7-yl)-7-pyridin-2-yl-benzothiazol-2-yl]-urea]	0.25 to 1 µg/mL (≈ 0.56 to 2.24 µM)
CCNC(=O)Nc1nc2cc(-c3cncc(OC)c3)cc(-c3cncc(OC)c3)c2s1 [Example 143, 1-[5,7-Bis-(5-methoxy-pyridin-3-yl)-benzothiazol-2-yl]-3-ethyl-urea]	0.25 to 1 µg/mL (≈ 0.574 to 2.3 µM)
CCNC(=O)Nc1nc2cc(-c3cnccn3)cc(-c3cccnc3)c2s1 [Example 43, 1-Ethyl-3-(5-pyrazin-2-yl-7-pyridin-3-yl-benzothiazol-2-yl)-urea]	0.25 to 1 µg/mL (≈ 0.664 to 2.66 µM)
CCNC(=O)Nc1nc2cc(-c3cccnc3)cc(C(=O)OC)c2s1 [Example 151, 2-(3-Ethyl-ureido)-5-pyridin-3-yl-benzothiazole-7-carboxylic acid methyl ester]	0.25 to 1 µg/mL (≈ 0.701 to 2.81 µM)

Same assay, conditions: Enterococcus faecalis, ATCC29212; ATCC 29212; Table 5; read-out: MIC against Enterococcus faecalis (Activity)

Compound	MIC
CCNC(=O)Nc1nc2cc(-c3cnccn3)nc(-c3cnccn3)c2s1 [Example 181, 1-(4,6-di(pyrazin-2-yl)thiazolo[5,4-c]pyridin-2-yl)-3-ethylurea]	0.25 to 1 µg/mL (≈ 0.661 to 2.64 µM)

— US8481544B2, “Antibacterial compositions” (Biota Europe Limited, priority 2006, dated 2013)
